# Experimental data: publication PMC9653409, “Generative deep learning enables the discovery of a potent and selective RIPK1 inhibitor” (Nature Communications, 2022)
# “And” between values parts separate entries of the source, which are not always exact repeats. Identical values can stand only once. Like-named read-outs stand apart in the source and are kept apart here.
# How the values were obtained:
# HT29-vector cells = test: TSZ-induced necroptosis in HT29-vector cells (CCK8); type: cell-based
# Experimental: (§1) Cell necroptosis protection assays were performed in 96-well cell culture plates. Cells were plated in each well and cultured at 37 °C overnight. […] The cell survival rate was determined using a CCK8 cell viability assay kit and CLARIOstar (v5.61). […] All experiments were performed at least two times, and each EC50 value was expressed as mean ± standard deviation (SD).
# The lentiCRISPRv2 vector targeting RIPK1 (sgRNA, 5’- […]-3’) was constructed by the Azenta company. HEK 293 T cells were transfected with lentiCRISPRv2 targeting RIPK1 and empty vector using Hieff Trans^TM Liposomal Transfection Reagent (Yeasen), respectively. […] The concentrated viruses were added to HT29 cells along with 8 μg/mL of polybrene (Yeasen) to enhance transfection efficiency. The infection assay was repeated in the next day under the same conditions. Finally, HT29 cells were screened with 3 μg/mL puromycin. Western blot analysis was used to confirm the RIPK1 deletion.
# DSS-induced IBD [1] = test: DSS-induced IBD mouse model: body weight; type: in vivo, C57BL/6 female mice; conditions: for Body Weight (%): Figure 9a
# Experimental: (§2) DSS (3% w/v) was administered in drinking water ad libitum for 7 d (from day 0 to day 7). DSS solution was replaced three times on day 2, day 4, and day 6. […] Three mice in each group were killed at random on day 7, and distal colon tissues were collected for analysis. The mice weight and survival rate were recorded daily.
# [2] = Pharmacokinetics in Sprague-Dawley rats; type: in vivo; conditions: for Plasma Concentraion / concentration at 0.083 h / concentration at 0.5 h / concentration at 1 h / concentration at 2 h / concentration at 4 h / concentration at 6 h / concentration at 8 h: animals 1-3; for concentration at 0.083 h / concentration at 0.5 h / concentration at 1 h / concentration at 2 h / concentration at 4 h / concentration at 6 h / concentration at 8 h: read-out: Plasma Concentraion; for MRT inf: read-out: MRT0-∞
# Experimental: The PK properties of compounds were examined in male Sprague-Dawley rats (n = 3 per group, weight: 180–220 g). Compounds were dissolved in saline with 5% (v/v) DMSO plus 40% (v/v) PEG400. The animals were administered with a single dose of 5 mg/kg (intravenous injection (i.v.)), 20 mg/kg (intraperitoneal injection (i.p.) or oral gavage (p.o.)). Blood samples were collected at 0.083, 0.25, 0.5, 1, 2, 4, 6, 8, 10 and 24 h, and centrifuged to isolate plasma. Subsequently, the plasma compound concentrations were determined by LC-MS/MS-13 (TQ5500, SCIEX), and the PK parameters were calculated using Phoenix WinNonlin 7.0.
# IL-1β = test: TNFα-induced SIRS mouse model: serum IL-1β (ELISA); type: in vivo, C57BL/6 female mice; conditions: 40 mg/kg i.p.
# Experimental: The body temperatures of the mice were continuously monitored until 6 h after TNFα administration. At 6 h after TNFα injection, four mice in each group were killed at random, and the serums, heart, liver, spleen, lung, and kidney tissues were collected for analysis.
# In the TNFα-induced SIRS model, at 6 h after TNFα injection, four mice in each group were killed at random, and the serums were collected, the serum concentrations of IL-1β and IL-6 were measured using ELISA kits (Neobioscience Technology) according to manufacturer’s instructions. […] The supernatant was collected by sequential centrifugation at 500 × g for 10 min and 3000 × g for 10 min. The concentrations of cytokines TNFα, IL-6, and IL-1β were measured using ELISA kits (Neobioscience Technology).
# U937 cells = test: TSZ-induced U937 cell necroptosis model (CCK8); type: cell-based; conditions: Homo sapiens, U-937
# Experimental: as §1
# DSS-induced IBD [3] = test: DSS-induced IBD mouse model: colon length; type: in vivo, C57BL/6 female mice
# Experimental: as §2
# [4] = male, Sprague-Dawley, rat, plasma, ip, 20 mg/kg
# [5] = male, Sprague-Dawley, rat, plasma, iv, 5 mg/kg
# [6] = male, Sprague-Dawley, rat, plasma, po, 20 mg/kg
smiles,measurement,setting,value
CC(C)C(=O)Nc1nc2cc(-c3ccc4c(c3)c(C(=O)NC(C)c3ccccc3)cn4C)ccn2n1 (stereo not shown) [RI-962],viability at 0.000169 µM,"HT29-vector cells; 0.000169 μM + TSZ, read-out: Cell Viability (%) Average",34.3%
same,viability at 0.000508 µM,"HT29-vector cells; 0.000508 μM + TSZ, read-out: Cell Viability (%) Average",38.1%
same,viability at 0.001524 µM,"HT29-vector cells; 0.001524 μM + TSZ, read-out: Cell Viability (%) Average",41.2%
same,viability at 0.004572 µM,"HT29-vector cells; 0.004572 μM + TSZ, read-out: Cell Viability (%) Average",64.8%
same,viability at 0.013717 µM,"HT29-vector cells; 0.013717 μM + TSZ, read-out: Cell Viability (%) Average",108%
same,viability at 0.041152 µM,"HT29-vector cells; 0.041152 μM + TSZ, read-out: Cell Viability (%) Average",109%
same,viability at 0.123457 µM,"HT29-vector cells; 0.123457 μM + TSZ, read-out: Cell Viability (%) Average",110%
same,viability at 0.37037 µM,"HT29-vector cells; 0.370370 μM + TSZ, read-out: Cell Viability (%) Average",113%
same,viability at 1.11111 µM,"HT29-vector cells; 1.111111 μM + TSZ, read-out: Cell Viability (%) Average",102%
same,EC50,"HT29-vector cells; HT29-vector, TSZ",4.2 ± 0.2 nM
same,loss of body weight,DSS-induced IBD [1]; 40 mg/kg i.p. once a day,strongly ameliorated this loss of body weight
same,Body Weight (%),DSS-induced IBD [1]; day 0,100%
same,Body Weight (%),DSS-induced IBD [1]; day 1,97.11%
same,Body Weight (%),DSS-induced IBD [1]; day 2,98.41%
same,Body Weight (%),DSS-induced IBD [1]; day 3,102.3%
same,Body Weight (%),DSS-induced IBD [1]; day 4,103.1%
same,Body Weight (%),DSS-induced IBD [1]; day 5,104.6%
same,Body Weight (%),DSS-induced IBD [1]; day 6,103.5%
same,Body Weight (%),DSS-induced IBD [1]; day 7,103.5%
same,Body Weight (%),DSS-induced IBD [1]; day 8,99.79%
same,Body Weight (%),DSS-induced IBD [1]; day 9,98.12%
same,Body Weight (%),DSS-induced IBD [1]; day 10,98.15%
same,Body Weight (%),DSS-induced IBD [1]; day 11,100.8%
same,Body Weight (%),DSS-induced IBD [1]; day 12,100.7%
same,Body Weight (%),DSS-induced IBD [1]; day 13,102.5%
same,Body Weight (%),DSS-induced IBD [1]; day 14,104.7%
same,Plasma Concentraion,"[2]; Supplementary Figure 7 panel a, 0.083 h",11181.2 ng/mL and 13503.2 ng/mL
same,Plasma Concentraion,"[2]; Supplementary Figure 7 panel a, 0.5 h",2022.7 ng/mL and 2493.56 ng/mL
same,Plasma Concentraion,"[2]; Supplementary Figure 7 panel a, 1 h",324.429 ng/mL and 368.25 ng/mL
same,Plasma Concentraion,"[2]; Supplementary Figure 7 panel a, 2 h",53.1161 ng/mL and 49.8208 ng/mL
same,Plasma Concentraion,"[2]; Supplementary Figure 7 panel a, 4 h",20.793 ng/mL and 12.876 ng/mL
same,Plasma Concentraion,"[2]; Supplementary Figure 7 panel a, 6 h",12.1272 ng/mL and 7.691 ng/mL
same,Plasma Concentraion,"[2]; Supplementary Figure 7 panel a, 8 h",5.677 ng/mL and 3.748 ng/mL
same,Plasma Concentraion,"[2]; Supplementary Figure 7 panel b, 0.083 h",127.196 ng/mL and 183.609 ng/mL
same,Plasma Concentraion,"[2]; Supplementary Figure 7 panel b, 0.5 h",350.948 ng/mL and 617.101 ng/mL
same,Plasma Concentraion,"[2]; Supplementary Figure 7 panel b, 6 h",11.7068 ng/mL and 13.5938 ng/mL
same,Plasma Concentraion,"[2]; Supplementary Figure 7 panel b, 8 h",8.501 ng/mL and 5.3 ng/mL
same,Plasma Concentraion,"[2]; Supplementary Figure 7 panel c, 0.083 h",841.69 ng/mL and 1224.6 ng/mL
same,Plasma Concentraion,"[2]; Supplementary Figure 7 panel c, 0.5 h",4149.3 ng/mL and 2823.2 ng/mL
same,Plasma Concentraion,"[2]; Supplementary Figure 7 panel c, 1 h",3680.1 ng/mL and 2363 ng/mL
same,Plasma Concentraion,"[2]; Supplementary Figure 7 panel c, 2 h",635.78 ng/mL and 701.71 ng/mL
same,Plasma Concentraion,"[2]; Supplementary Figure 7 panel c, 4 h",226.7 ng/mL and 115.63 ng/mL
same,concentration at 0.083 h,"[2]; male, Sprague-Dawley, rat, plasma, intraperitoneal, 20 mg/kg, Supplementary Figure 7 panel c, 0.083 h",1010 ng/mL
same,concentration at 0.5 h,"[2]; male, Sprague-Dawley, rat, plasma, intraperitoneal, 20 mg/kg, Supplementary Figure 7 panel c, 0.5 h",3840 ng/mL
same,concentration at 1 h,"[2]; male, Sprague-Dawley, rat, plasma, intraperitoneal, 20 mg/kg, Supplementary Figure 7 panel c, 1 h",3080 ng/mL
same,concentration at 2 h,"[2]; male, Sprague-Dawley, rat, plasma, intraperitoneal, 20 mg/kg, Supplementary Figure 7 panel c, 2 h",737 ng/mL
same,concentration at 4 h,"[2]; male, Sprague-Dawley, rat, plasma, intraperitoneal, 20 mg/kg, Supplementary Figure 7 panel c, 4 h",229 ng/mL
same,concentration at 0.083 h,"[2]; male, Sprague-Dawley, rat, plasma, intravenous, 5 mg/kg, Supplementary Figure 7 panel a, 0.083 h",11800 ng/mL
same,concentration at 0.5 h,"[2]; male, Sprague-Dawley, rat, plasma, intravenous, 5 mg/kg, Supplementary Figure 7 panel a, 0.5 h",1610 ng/mL
same,concentration at 1 h,"[2]; male, Sprague-Dawley, rat, plasma, intravenous, 5 mg/kg, Supplementary Figure 7 panel a, 1 h",291 ng/mL
same,concentration at 2 h,"[2]; male, Sprague-Dawley, rat, plasma, intravenous, 5 mg/kg, Supplementary Figure 7 panel a, 2 h",59.6 ng/mL
same,concentration at 4 h,"[2]; male, Sprague-Dawley, rat, plasma, intravenous, 5 mg/kg, Supplementary Figure 7 panel a, 4 h",20.6 ng/mL
same,concentration at 6 h,"[2]; male, Sprague-Dawley, rat, plasma, intravenous, 5 mg/kg, Supplementary Figure 7 panel a, 6 h",11.6 ng/mL
same,concentration at 8 h,"[2]; male, Sprague-Dawley, rat, plasma, intravenous, 5 mg/kg, Supplementary Figure 7 panel a, 8 h",6.4 ng/mL
same,AUC(0-inf),[2]; [4],6610 ± 1120 ng·h/mL
same,AUC(0-t),[2]; [4],6460 ng·h/mL
same,Cmax,[2]; [4],3600 ± 693 ng/mL
same,Tmax,[2]; [4],0.5 h
same,bioavailability,[2]; [4],35.7 ± 6.3%
same,half-life,[2]; [4],8.5 ± 1.6 h
same,MRT inf,[2]; [4],2.8 ± 0.1 h
same,AUC(0-inf),[2]; [5],4540 ± 546 ng·h/mL
same,AUC(0-t),[2]; [5],4530 ng·h/mL
same,Cmax,[2]; [5],12200 ± 1200 ng/mL
same,Tmax,[2]; [5],0.1 h
same,clearance,[2]; [5],18.5 ± 2.1 mL/min/kg
same,half-life,[2]; [5],2.1 ± 0.2 h
same,MRT inf,[2]; [5],0.4 h
same,Vd,"[2]; male, Sprague-Dawley, rat, plasma, iv, 5 mg/kg, read-out: Vss",0.4 ± 0.1 L/kg
same,concentration at 0.083 h,"[2]; male, Sprague-Dawley, rat, plasma, oral, 20 mg/kg, Supplementary Figure 7 panel b, 0.083 h",113 ng/mL
same,concentration at 0.5 h,"[2]; male, Sprague-Dawley, rat, plasma, oral, 20 mg/kg, Supplementary Figure 7 panel b, 0.5 h",418 ng/mL
same,concentration at 6 h,"[2]; male, Sprague-Dawley, rat, plasma, oral, 20 mg/kg, Supplementary Figure 7 panel b, 6 h",11.3 ng/mL
same,concentration at 8 h,"[2]; male, Sprague-Dawley, rat, plasma, oral, 20 mg/kg, Supplementary Figure 7 panel b, 8 h",7.91 ng/mL
same,AUC(0-inf),[2]; [6],1600 ± 896 ng·h/mL
same,AUC(0-t),[2]; [6],1590 ng·h/mL
same,Cmax,[2]; [6],674 ± 425 ng/mL
same,Tmax,[2]; [6],0.8 ± 1 h
same,half-life,[2]; [6],1.3 ± 0.2 h
same,MRT inf,[2]; [6],1.8 ± 0.2 h
same,AUC0–t,"[2]; p.o., 20 mg/kg",1594.9 ± 891.8 ng·h/mL
same,F (%),"[2]; p.o., 20 mg/kg",8.8 ± 5.0%
same,concentration of IL-1β,IL-1β; 6 h after TNFα,remarkably reduced
same,IL-1β,"IL-1β; serum 6 h after TNFα, animals 1-4",95.48 pg/mL and 91.16 pg/mL and 77.29 pg/mL and 76.39 pg/mL
same,viability at 56 pM,U937 cells; 0.000056 μM,1.42%
same,viability at 0.000169 µM,U937 cells; 0.000169 μM,0.727%
same,viability at 0.000508 µM,U937 cells; 0.000508 μM,0.579%
same,viability at 0.001524 µM,U937 cells; 0.001524 μM,2.66%
same,viability at 0.004572 µM,U937 cells; 0.004572 μM,8.5%
same,viability at 0.013717 µM,U937 cells; 0.013717 μM,37.9%
same,viability at 0.041152 µM,U937 cells; 0.041152 μM,78%
same,viability at 0.123457 µM,U937 cells; 0.123457 μM,84.5%
same,viability at 0.37037 µM,U937 cells; 0.370370 μM,96.7%
same,viability at 1.11111 µM,U937 cells; 1.111111 μM,96.2%
same,viability at 3.33333 µM,U937 cells; 3.333333 μM,90.4%
same,EC50,"U937 cells; U937 treated with TSZ, 24 h",17.8 nM
same,DSS-induced shortening of colon length,"DSS-induced IBD [3]; 40 mg/kg i.p. once a day, day 7",markedly reduced
same,Colon Length,"DSS-induced IBD [3]; Figure 9b, individual replicates 1-3",52.0 mm and 54.0 mm (2×)
